Source: US20220273673A1, “BONE-BINDING COMPOUNDS” (BRIGHAM YOUNG UNIVERSITY, priority 2019, published 2022)

How the values were obtained:
[1] = system: J774.2 monocyte macrophage lineage cells; assay: In vitro protein prenylation assay (mevalonate pathway); type: cell-based; conditions: 25 μM or equimolar concentration; 24 hours
Protocol: The assay used was as described by Ali N et al., Small GTPases 6(4):202-11 (2015). Briefly, this involved incubation of cells with the compounds for 24 hours at increasing doses of drugs and then an in vitro prenylation assay being performed on protein extracts. Immunoblotting (western blotting) was carried out to identify an exemplar unprenylated protein, with a band indicating drug activity affecting the mevalonate pathway.

[2] = Hydroxyapatite (HA) binding assay, HPLC of supernatant; conditions: after 60 minutes of incubation with HA
Protocol: To analyze the reduction in peak height due to HA binding, 100 μL of supernatant was withdrawn at predetermined time points and analyzed by HPLC.

MC3T3-E1 cells = assay: Alkaline phosphatase activity assay (p-nitrophenyl phosphate) in osteoblasts; type: cell-based; conditions: 5 μM; osteogenic media; without rhBMP-2
Protocol: A p-nitrophenyl phosphate assay was performed for alkaline phosphatase activity (Sigma-Aldrich) and normalized to day-3 cells grown in osteogenic media and α-MEM media. Assays were performed in triplicate with two independent repeats.

cultured cells = conditions: Schindeler et al. 2015; cited from earlier work

Compound: NCCCC(O)(P(=O)(O)O)P(=O)(O)O [alendronate]
- Effect on protein prenylation (unprenylated protein band, western blot) [1]: potent effect on protein prenylation

Compound: CCCCCN(CCCCC)CCC[C@@H](C)[C@H]1CC[C@H]2[C@@H]3[C@H](OCCCN)C[C@@H]4C[C@H](OCCCN)CC[C@]4(C)[C@H]3CC(OCCCN)[C@]12C (some centres unmarked) [CSA-90]
- Effect on protein prenylation (unprenylated protein band, western blot) [1]: did not induce a noticeable or comparable protein prenylation effect
- Reduction in peak height on HA incubation (in words) [2]: no, or very low, reduction in peak height
- Alkaline phosphatase expression / osteogenic potential, compound alone (MC3T3-E1 cells): increased alkaline phosphatase expression
- Pro-osteogenic activity, potentiation of rhBMP-2 (cultured cells): pro-osteogenic activity
